The molecules below were run against T1, GRK6, recombinant full-length GST-tagged human protein (Homo sapiens, UniProt P43250) (assay: GRK6 assay, IC50 determination (8-point concentration-response)). Details: Series 1 (Table 11); 20 nM GRK6, ATP 12 μM (Km), Peptide 216 1 μM, incubation 7 h.
T1 construct: Enzyme: 20 nM GRK6, recombinant full-length GST-tagged human protein; GST
Type: biochemical
Method: The following assay conditions were used.
Buffer: 50 mM TRIS-HCl, pH 7.5, 5 mM MgCl2, 2 mM DTT, 0.01% Triton X-100, 10 μM Na3VO4, 10 μM b-GP, 1% DMSO
Enzyme: 20 nM GRK6, recombinant full-length GST-tagged human protein
Peptide substrate (Peptide 216): 1 μM
One hundred two compounds (1-1-1-102) were further characterized by determining IC50 values in a GRK6 assay. This screen has been previously described in WO 2013/063458, which is incorporated by reference in its entirety herein. Briefly, the following activities were performed: 8-point concentration-response determinations in singlicate wells (top concentration=60 μM, 3-fold dilution steps); Repeat tests for QC failed or inconclusive compounds; and Repeat tests (titrate down) for compounds with >50% inhibition at all tested concentrations.
Twelve compounds (2-1-2-12) were further characterized by determining the IC50 values in a GRK6 assay. This screen has been previously described in WO 2013/063458, which is incorporated by reference in its entirety herein. Specific activities were performed as described above (Example 18).
Thirty-six compounds (3-1-3-36) were further characterized by determining the IC50 values in a GRK6 assay. This screen has been previously described in WO 2013/063458, which is incorporated by reference in its entirety herein. Specific activities were performed as described above (Example 18).
Fifty-four compounds (4-1-4-54) were further characterized by determining the IC50 values in a GRK6 assay. This screen has been previously described in WO 2013/063458, which is incorporated by reference in its entirety herein. Specific activities were performed as described above (Example 18).

T1 sequence (P43250 whole entry): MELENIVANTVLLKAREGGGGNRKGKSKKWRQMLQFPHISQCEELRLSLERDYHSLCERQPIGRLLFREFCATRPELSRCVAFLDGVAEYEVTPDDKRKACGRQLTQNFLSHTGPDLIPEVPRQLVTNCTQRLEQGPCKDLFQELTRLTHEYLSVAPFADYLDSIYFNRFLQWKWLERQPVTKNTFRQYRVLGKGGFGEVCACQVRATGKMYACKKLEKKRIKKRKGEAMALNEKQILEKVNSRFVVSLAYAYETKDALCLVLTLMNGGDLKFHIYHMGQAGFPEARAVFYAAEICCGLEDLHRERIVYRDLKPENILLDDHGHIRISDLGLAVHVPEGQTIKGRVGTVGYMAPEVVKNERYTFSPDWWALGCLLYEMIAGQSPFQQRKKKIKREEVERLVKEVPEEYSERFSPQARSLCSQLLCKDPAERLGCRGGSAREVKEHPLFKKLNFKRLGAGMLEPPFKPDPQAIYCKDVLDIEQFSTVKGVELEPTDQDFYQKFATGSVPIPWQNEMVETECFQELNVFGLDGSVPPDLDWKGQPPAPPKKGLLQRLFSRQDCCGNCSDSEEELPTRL

Row | IC50 [µM] | Compound
1 | 0.711 | CCOc1cccc(-c2ccc(-c3nnc(SCC(=O)O)[nH]3)o2)c1 [Compound 1-64]
2 | 0.711 | Cc1ccc(-c2ccc(-c3nnc(SCC(=O)O)[nH]3)o2)cc1[N+](=O)[O-] [Compound 1-65]
3 | 0.347 | O=C(O)CSc1nnc(-c2ccc(-c3ccc4[nH]ccc4c3)o2)[nH]1 [Compound 1-35]
4 | 0.636 | O=C(O)CSc1nnc(-c2ccc(-c3cccc(O)c3)o2)[nH]1 [Compound 1-62]
5 | 0.126 | O=C(O)CSc1nnc(-c2ccc(-c3cccc(OCc4cccc([N+](=O)[O-])c4)c3)o2)[nH]1 [Compound 1-2]
6 | 0.514 | COc1ccc(/C=C/c2ccc(-c3nnc(SCC(=O)O)[nH]3)o2)cc1 [Compound 1-53]
7 | 0.497 | CCOc1ccc(-c2ccc(-c3nnc(SCC(=O)O)[nH]3)o2)cc1Cl [Compound 1-51]
8 | 0.133 | O=C(O)CSc1nnc(-c2ccc(-c3ccc4[nH]c(-c5ccccc5)cc4c3)o2)[nH]1 [Compound 1-4]
9 | 3.31 | Cc1nn(C)cc1-c1ccc(-c2nnc(SCC(=O)O)[nH]2)o1 [Compound 1-96]
10 | 0.195 | O=C(O)CSc1nnc(-c2ccc(-c3cccc(OCc4cccc(OC(F)F)c4)c3)o2)[nH]1 [Compound 1-13]
11 | 0.734 | COc1ccc(-c2ccc(-c3nnc(SCC(=O)O)[nH]3)o2)cc1/C=N/OCc1ccccc1 [Compound 1-66]
12 | 3.33 | O=C(O)CSc1nnc(-c2ccc(Br)o2)[nH]1 [Compound 1-97]
13 | 1.12 | O=C(O)CSc1nnc(-c2ccc(-c3ccc(Cl)s3)o2)[nH]1 [Compound 1-76, 2-((5-(5-(5-chlorothiophen-2-yl)furan-2-yl)-4H-1,2,4-triazol-3-yl)thio)acetic acid]
14 | 0.341 | CCCOc1cccc(-c2ccc(-c3nnc(SCC(=O)O)[nH]3)o2)c1 [Compound 1-34]
15 | 3.18 | O=C(O)CSc1nnc(-c2ccc(-c3ccccc3[N+](=O)[O-])o2)[nH]1 [Compound 1-95]
16 | 0.186 | O=C(O)CSc1nnc(-c2ccc(-c3cc(Cl)cc(Cl)c3)o2)[nH]1 [Compound 1-10]
17 | 0.563 | O=C(O)CSc1nnc(-c2ccc(-c3c[nH]c4ccccc34)o2)[nH]1 [Compound 1-55]
18 | 0.327 | O=C(O)CSc1nnc(-c2ccc(-c3cc4ccccc4o3)o2)[nH]1 [Compound 1-32]

Row | IC50 [µM] | Compound
19 | 6.2 | O=C(O)CSc1nnc(-c2ccc(-c3cnn(CCN4CCOCC4)c3)o2)[nH]1 [Compound 1-100]
20 | 0.314 | O=C(O)CSc1nnc(-c2ccc(-c3ccc(F)c(Cl)c3)o2)[nH]1 [Compound 1-29]
21 | 0.079 | O=C(O)CSc1nnc(-c2ccc(-c3ccc4[nH]cc(-c5ccccc5)c4c3)o2)[nH]1 [Compound 1-1]
22 | 1.44 | O=C(O)CSc1nnc(-c2ccc(-c3ccccc3Cl)o2)[nH]1 [Compound 1-85]
23 | 0.635 | Cn1ccc2cc(-c3ccc(-c4nnc(SCC(=O)O)[nH]4)o3)ccc21 [Compound 1-61]
24 | 0.17 | COc1cc(Cl)cc(-c2ccc(-c3nnc(SCC(=O)O)[nH]3)o2)c1 [Compound 1-8]
25 | 0.516 | COc1ccc(-c2ccc(-c3nnc(SCC(=O)O)[nH]3)o2)cc1OCc1ccccc1 [Compound 1-54]
26 | 1.17 | CC(C)CCn1ccc(-c2ccc(-c3nnc(SCC(=O)O)[nH]3)o2)n1 [Compound 1-78]
27 | 0.875 | CO/N=C/c1cc(-c2ccc(-c3nnc(SCC(=O)O)[nH]3)o2)ccc1OC [Compound 1-71]
28 | 1.8 | Cn1ccc2c(-c3ccc(-c4nnc(SCC(=O)O)[nH]4)o3)cccc21 [Compound 1-87]
29 | 1.82 | COc1ccc(-c2ccc(-c3nnc(SCC(=O)O)[nH]3)o2)cn1 [Compound 1-88]
30 | 0.616 | O=C(O)CSc1nnc(-c2ccc(-c3cccc(OCc4ccc(Cl)c(C(F)(F)F)c4)c3)o2)[nH]1 [Compound 1-58]
31 | 0.395 | COc1cc(-c2ccc(-c3nnc(SCC(=O)O)[nH]3)o2)ccc1OCc1ccccc1 [Compound 1-43]
32 | 0.276 | O=C(O)CSc1nnc(-c2ccc(-c3cccc(OCc4cccc(Cl)c4)c3)o2)[nH]1 [Compound 1-24]
33 | 0.421 | O=C(O)CSc1nnc(-c2ccc(-c3ccc4cc[nH]c4c3)o2)[nH]1 [Compound 1-46]
34 | 0.402 | COc1cccc(-c2ccc(-c3nnc(SCC(=O)O)[nH]3)o2)c1 [Compound 1-44]
35 | 1.17 | O=C(O)CSc1nnc(-c2ccc(-c3ccc4nccnc4c3)o2)[nH]1 [Compound 1-79]

Same assay, conditions: Series 2 (Table 12); conditions as Example 18

Row | IC50 [µM] | Compound
36 | 0.626 | COc1ccc2cc(C#Cc3ccc(-c4cc(SCC(=O)O)n[nH]4)o3)ccc2c1 [Compound 2-5]
37 | 18.3 | O=C(O)CSc1cc(-c2ccccc2)[nH]n1 [Compound 2-12, 2-[(5-phenyl-1H-pyrazol-3-yl)sulfanyl]acetic acid]
38 | 0.788 | O=C(O)CSc1cc(-c2ccc(-c3ccc4ccccc4c3)s2)[nH]n1 [Compound 2-7]

Same assay, conditions: Series 3 (Table 13); conditions as Example 18

Row | IC50 [µM] | Compound
39 | 8.63 | c1cncc(-c2ccc(-c3nnc(SCc4nnn[nH]4)[nH]3)o2)c1 [Compound 3-32]
40 | 2.16 | COc1cc(-c2ccc(-c3nnc(SCc4nnn[nH]4)[nH]3)o2)cc(C(F)(F)F)c1 [Compound 3-13]
41 | 0.881 | FC(F)(F)c1cc(-c2ccc(-c3nnc(SCc4nnn[nH]4)[nH]3)o2)cc2cccnc12 [Compound 3-4]
42 | 3.83 | Fc1cc(-c2ccc(-c3nnc(SCc4nnn[nH]4)[nH]3)o2)cc(F)c1F [Compound 3-24]
43 | 7.16 | CNS(=O)(=O)c1cccc(-c2ccc(-c3nnc(SCc4nnn[nH]4)[nH]3)o2)c1 [Compound 3-30]
44 | 6.9 | Fc1ccc(-c2ccc(-c3nnc(SCc4nnn[nH]4)[nH]3)o2)cc1F [Compound 3-29]
45 | 8.91 | N#Cc1ccc(-c2ccc(-c3nnc(SCc4nnn[nH]4)[nH]3)o2)cc1 [Compound 3-33]
46 | 9.05 | O=[N+]([O-])c1cc(-c2ccccc2)cc(-c2nnc(SCc3nnn[nH]3)[nH]2)c1 [Compound 3-36]
47 | 0.667 | c1cnc2ccc(-c3ccc(-c4nnc(SCc5nnn[nH]5)[nH]4)o3)cc2c1 [Compound 3-3]
48 | 4.66 | CS(=O)(=O)Nc1cccc(-c2ccc(-c3nnc(SCc4nnn[nH]4)[nH]3)o2)c1 [Compound 3-25]
49 | 7.45 | CS(=O)(=O)c1cccc(-c2ccc(-c3nnc(SCc4nnn[nH]4)[nH]3)o2)c1 [Compound 3-31]
50 | 6.21 | c1ccc(-c2ccc(-c3nnc(SCc4nnn[nH]4)[nH]3)o2)cc1 [Compound 3-28]
51 | 2.86 | COc1cc(F)cc(-c2ccc(-c3nnc(SCc4nnn[nH]4)[nH]3)o2)c1 [Compound 3-17]
52 | 0.545 | Clc1cc(Cl)cc(-c2ccc(-c3nnc(SCc4nnn[nH]4)[nH]3)o2)c1 [Compound 3-2]

Same assay, conditions: Series 4 (Table 14); conditions as Example 18

Row | IC50 [µM] | Compound
53 | 22.3 | O=C(O)CSc1nnc(-c2csnn2)[nH]1 [Compound 4-28]
54 | 12.3 | O=C(O)CSc1nnc(-c2[nH]ncc2Br)[nH]1 [Compound 4-23]
55 | > 86 | O=C(O)CSc1nnc(-c2ccc3cccnc3n2)[nH]1 [Compound 4-45]
56 | > 100 | COc1ccc2cc(-c3[nH]nc(SCC(=O)O)c3Br)ccc2c1 [Compound 4-53]
57 | 1.12 | O=C(O)CSc1nnc(-c2cnc3ccccc3c2)[nH]1 [Compound 4-4]
58 | > 100 | Cc1nc[nH]c1-c1nnc(SCC(=O)O)[nH]1 [Compound 4-50]
59 | 20.7 | COc1ccc2c(-c3nnc(SCC(=O)O)[nH]3)c[nH]c2c1 [Compound 4-27]
60 | > 64 | CC(C)(C)C(=O)Nc1ncccc1-c1nnc(SCC(=O)O)[nH]1 [Compound 4-47]
61 | 31.2 | CSc1nc(-c2nnc(SCC(=O)O)[nH]2)ccc1C#N [Compound 4-31]
62 | 2.98 | O=C(O)CSc1nnc(-c2ccc(-c3ccc4ccccc4c3)s2)[nH]1 [Compound 4-10]
63 | 2.01 | O=C(O)CSc1nnc(-c2cnn(-c3cccc(Cl)c3)c2)[nH]1 [Compound 4-6, 2-((5-(1-(3-chlorophenyl)-1H-pyrazol-4-yl)-4H-1,2,4-triazol-3-yl)thio)acetic acid]
64 | 32.5 | COc1cccc(-c2nnc(SCC(=O)O)[nH]2)n1 [Compound 4-32]
65 | > 100 | Cc1nc(C)c(-c2nnc(SCC(=O)O)[nH]2)s1 [Compound 4-43]
66 | 27.8 | Cc1ncc(-c2nnc(SCC(=O)O)[nH]2)cn1 [Compound 4-30]
67 | 38.8 | Cn1c(-c2nnc(SCC(=O)O)[nH]2)cc2ccccc21 [Compound 4-34]
68 | 2.61 | Cc1ccc2sc(-c3nnc(SCC(=O)O)[nH]3)cc2c1 [Compound 4-9]
69 | > 100 | Cc1noc(C)c1-c1nnc(SCC(=O)O)[nH]1 [Compound 4-40]
70 | 0.595 | O=C(O)CSc1nnc(-c2ccc(-c3cc(Cl)cc(Cl)c3)s2)[nH]1 [Compound 4-1]
71 | 89.2 | Cn1cc(Cl)c(-c2nnc(SCC(=O)O)[nH]2)n1 [Compound 4-37]
72 | 2.56 | O=C(O)CSc1nnc(-c2csc3ccccc23)[nH]1 [Compound 4-7]
73 | 9.21 | O=C(O)CSc1nnc(-c2ccc(Oc3ccccc3)nc2)[nH]1 [Compound 4-20]

Source: patent US9902739B2, “Small molecule inhibitors of G protein coupled receptor 6 kinases polypeptides” (Mayo Foundation for Medical Education and Research, priority 2014, dated 2018)
